US10005733B2, “N-(4-hydroxy-4-methyl-cyclohexyl)-4-phenyl-benzenesulfonamide and N-(4-hydroxy-4-methyl-cyclohexyl)-4-(2-pyridyl)-benzenesulfonamide compounds and their therapeutic use” (PIMCO 2664 LIMITED, priority 2014, dated 2018)

Key:
CYP2C19 = target: T1, CYP2C19 (Homo sapiens, UniProt P33261); assay: Human Cytochrome P450 Inhibition Assay (Bactosomes), CYP2C19; assay type: in vitro ADME; conditions: recombinant Bactosomes, probe substrate, 10 minutes at 37° C.
T1 construct: purchased Cypex Ltd, Dundee, Scotland UK
Method: (§1) The ability of test compounds to inhibit five of the most relevant cytochrome P450 enzymes was measured by determination of the activity of cytochrome P450 enzymes in recombinant cytochrome preparations, called Bactosomes (Cypex Ltd, Dundee, Scotland UK DD2 1NH), in the presence of a specific probe substrate. Bactosomes are a highly efficient and cost-effective source of recombinant CYP450s which have a higher specific activity of enzyme compared to other sources, such as liver microsomes. […] The following CYP450 isoforms were assayed: CYP1A2, CYP2C9, CYP2C19, CYP2D6 and CYP3A4. The study of CYP450 inhibition potential in Bactosomes is accepted as a valuable model permitting rapid prediction of potential drug-drug interactions in vivo (see, e.g., Weaver et al., 2003).
(§2) Bactosomes were obtained from a commercial source (Cypex, Scotland, UK). Test compounds were incubated with Bactosomes at 6 concentrations. Samples were incubated for 10 minutes, after which the reaction was stopped and the samples analysed by LC-MS/MS Multiple Reaction Monitoring (MRM) for the presence/amount of substrate probe.
(§3) CYP450 enzymes (final protein 75 pmol/mL for CYP1A2; 12.5 pmol/mL for CYP2C19; and 25 pmol/mL for CYP2C9, 2D6 and 3A4), 0.1 M phosphate buffer pH 7.4, probe and test compound (final concentration 50, 15.8, 5, 1.58, 0.5 and 0.158 μM; diluted from 10 mM stock solution to give a final DMSO concentration of 1%) were pre-incubated at 37° C. for 5 minutes. The reaction was initiated by the addition of 20 μL of 10 mM NADPH in phosphate buffer. The final incubation volume was 200 μL. The following control inhibitors were used for each CYP450 inhibition assay: CYP1A2: α-naphthoflavone; CYP2C9: sulfaphenazole; CYP2C19: tranylcypromine; CYP2D6: quinidine; CYP3A4: ketoconazole.
(§4) Each compound was incubated for 10 minutes at 37° C. The reactions were stopped by the addition of methanol (final composition 1:1, aqueous: methanol). The incubation plates were shaken, chilled at […] for 2 hours, and centrifuged at 3500 rpm for 15 minutes at 4° C. to precipitate the protein.
(§5) IC50 values were determined by linear transformation within Microsoft Excel.

CYP1A2 = target: T2, CYP1A2 (Homo sapiens, UniProt P05177); assay: Human Cytochrome P450 Inhibition Assay (Bactosomes), CYP1A2; assay type: in vitro ADME; conditions: recombinant Bactosomes, probe substrate, 10 minutes at 37° C.
T2 construct: purchased Cypex Ltd, Dundee, Scotland UK
T2 sequence (P05177 1-516): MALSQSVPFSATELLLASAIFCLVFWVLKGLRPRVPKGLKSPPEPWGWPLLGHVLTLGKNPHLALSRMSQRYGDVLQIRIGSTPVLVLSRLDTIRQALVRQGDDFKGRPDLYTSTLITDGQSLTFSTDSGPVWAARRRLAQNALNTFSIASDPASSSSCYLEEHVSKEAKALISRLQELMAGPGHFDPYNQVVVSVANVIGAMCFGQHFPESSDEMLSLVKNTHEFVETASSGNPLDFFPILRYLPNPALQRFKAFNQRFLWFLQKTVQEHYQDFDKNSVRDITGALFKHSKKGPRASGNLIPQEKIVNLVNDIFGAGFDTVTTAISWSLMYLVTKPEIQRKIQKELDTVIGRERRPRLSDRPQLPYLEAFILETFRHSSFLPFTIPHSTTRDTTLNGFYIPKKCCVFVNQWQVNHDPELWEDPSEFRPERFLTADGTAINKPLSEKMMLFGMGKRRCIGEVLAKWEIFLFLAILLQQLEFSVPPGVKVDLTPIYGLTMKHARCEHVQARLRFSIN
Method: as §1, §2, §3, §4, §5

J774 macrophages = assay: Resazurin Macrophage J774 Viability Assay; assay type: cell-based; conditions: Mus musculus
Method: Potency was assessed using a viability assay based on the survival of the J774 macrophage cell line. Macrophages are closely related to osteoclasts and have been used previously as a model system for osteoclast survival (see, e.g., Luckman et al., 1998, “Heterocycle-containing bisphosphonates cause apoptosis and inhibit bone resorption by preventing protein prenylation: evidence from structure-activity relationships in J774 macrophages,” J. Bone Miner. Res., Vol. 13, pp. 1668-1678). The model is indicative both of effects on bone protection in diseases such as osteoporosis, osteoarthritis and rheumatoid arthritis, and of effects on inflammation since, like osteoclasts, J774 macrophages are dependent for survival on continued NFκB activation.
In vitro potency of test compounds was determined by incubation with J774 macrophages and subsequent determination of cell viability using resazurin.
Resazurin is a redox dye commonly used as an indicator of viability in cultured cells (see, e.g., Anoopkumar-Dukie, 2005, “Resazurin assay of radiation response in cultured cells”, British Journal of Radiology, Vol. 78, pp. 945-947). It is non-toxic to cells and stable in culture medium, allowing continuous measurement of cell proliferation in vitro as either a kinetic or endpoint assay. The assay is based on the ability of viable, metabolically-active cells to reduce resazurin (which is blue and non-fluorescent) to resorufin and dihydroresorufin (which are red and fluorescent) using electrons from reducing species, such as nicotinamide […] and flavin adenine dinucleotide (FADH). This transformation, from oxidised form to reduced form, can be measured either colorimetrically or fluorometrically. Insults that impair cell viability and proliferation also affects the capacity of cells to reduce resazurin, and the rate of dye reduction is directly proportional to the number of viable cells present.
For fluorescence measurements, 530-560 nm excitation and 590 nm emission wavelengths are typically used. For colorimetric measurements, absorbance at 570 nm (reduced form) and 600 nm (oxidised form) is typically measured. A simple calculation is performed to determine the relative quantities of the two species: a high ratio of resorufin (the reduced form) to resazurin (the oxidised form) is an indicator that cells are proliferating and viable. A low ratio indicates cells that are quiescent or non-viable.
J774 cells were plated at 10^4 cells per well in 100 μL αMEM (α Modified Eagle Medium) in 96-well plates and allowed to adhere overnight. The following day, test compounds were prepared as 100 mM solutions in DMSO. These stock solutions were diluted in DMSO and then diluted 1000× in culture medium (αMEM) before being added directly to the wells so as to give the desired final compound concentration. After a 72 hour incubation at 37° C./5% CO2, resazurin (Alamar Blue, Biosource International) was added to each well (1:10 v/v, 10 μL). The plate was then incubated at 37° C. for 3 hours and fluorescence was measured at 590 nm, with a 25 nm bandwidth.
The average results for each test compound were expressed as a percent (%) of the average control value reflecting cell viability. The average values across the concentrations tested were then plotted and an IC50 was calculated by fitting the data to a 4-parameter IC50 equation using either Graph Pad Prism software for Windows (Graph Pad Software, San Diego Calif. USA) or Grafit version 5 (Erithacus Software). Each experiment was repeated twice and the data are presented as the mean IC50 from both experiments.

[1] = J774, 72 h, footnote (1): 10 point range 30 μM to 1.5 nM, n = 3 per concentration, Grafit, 72 hour incubation
[2] = J774, footnote (2): 12 point range 10 μM to 0.5 nM, n = 4 per concentration, GraphPad Prism, average of original and new experiments where replicates increased

T1 sequence (P33261 whole entry): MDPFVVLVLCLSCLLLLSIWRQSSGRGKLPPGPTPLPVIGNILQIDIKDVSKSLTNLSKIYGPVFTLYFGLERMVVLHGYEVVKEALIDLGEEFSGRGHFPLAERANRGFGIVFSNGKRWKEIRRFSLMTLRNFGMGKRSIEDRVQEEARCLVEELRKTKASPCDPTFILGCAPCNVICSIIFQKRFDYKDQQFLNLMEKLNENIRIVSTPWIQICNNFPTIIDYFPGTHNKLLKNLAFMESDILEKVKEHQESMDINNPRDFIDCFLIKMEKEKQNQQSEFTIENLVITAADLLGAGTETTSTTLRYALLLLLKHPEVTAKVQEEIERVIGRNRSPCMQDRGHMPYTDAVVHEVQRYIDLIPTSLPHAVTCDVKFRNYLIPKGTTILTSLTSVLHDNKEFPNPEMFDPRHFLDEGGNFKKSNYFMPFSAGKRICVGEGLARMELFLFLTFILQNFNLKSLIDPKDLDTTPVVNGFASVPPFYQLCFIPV

O=S(=O)(N[C@H]1CC[C@H](O)CC1)c1ccc(-c2ccc(F)cc2F)cc1 [ABD599, reference compound]
IC50 (CYP2C19): > 25 µM | IC50 (CYP1A2): > 25 µM | IC50 (J774 macrophages; [1]): 0.41 µM

Cc1cc(S(=O)(=O)N[C@H]2CC[C@H](O)CC2)ccc1-c1ccc(F)cc1F [ABD735, reference compound]
IC50 (CYP2C19): > 25 µM | IC50 (CYP1A2): > 25 µM | IC50 (J774 macrophages; [1]): 0.07 µM | IC50 (J774 macrophages; [2]): 0.11 µM

C[C@]1(O)CC[C@@H](NS(=O)(=O)c2ccc(-c3ccc(F)cc3F)cc2)CC1 [ABD899, reference compound]
IC50 (CYP2C19): 7.3 µM | IC50 (CYP1A2): > 25 µM | IC50 (J774 macrophages; [1]): 0.27 µM | IC50 (J774 macrophages; [2]): 0.21 µM

C[C@]1(O)CC[C@H](NS(=O)(=O)c2ccc(-c3ccc(F)cc3F)cc2)CC1 [ABD900]
IC50 (J774 macrophages; [1]): 3.64 µM | IC50 (J774 macrophages; [2]): 2.91 µM

C[C@]1(O)CC[C@H](NS(=O)(=O)c2ccc(-c3ccc(C#N)cc3)c(F)c2)CC1 [HMC-C-07-A, 4′-Cyano-2-fluoro-N-((1r,4r)-4-hydroxy-4-methylcyclohexyl)-[1,1′-biphenyl]-4-sulfonamide]
IC50 (CYP2C19): > 50 µM | IC50 (CYP1A2): > 50 µM | IC50 (J774 macrophages; [2]): 1.66 µM

C[C@]1(O)CC[C@@H](NS(=O)(=O)c2ccc(-c3ccc(C#N)cc3)c(F)c2)CC1 [HMC-C-07-B, 4′-Cyano-2-fluoro-N-((1s,4s)-4-hydroxy-4-methylcyclohexyl)-[1,1′-biphenyl]-4-sulfonamide]
IC50 (CYP2C19): > 50 µM | IC50 (CYP1A2): > 50 µM | IC50 (J774 macrophages; J774, first column (original replicates, n = 2), footnote (2): 12 point range 10 μM to 0.5 nM, GraphPad Prism): 0.09 µM | IC50 (J774 macrophages; [2]): 0.096 µM

C[C@]1(O)CC[C@H](NS(=O)(=O)c2ccc(-c3ccc(Cl)cc3C#N)c(F)c2)CC1 [HMC-C-08-A, 4′-Chloro-2′-cyano-2-fluoro-N-((1r,4r)-4-hydroxy-4-methylcyclohexyl)-[1,1′-biphenyl]-4-sulfonamide]
IC50 (CYP2C19): 30 µM | IC50 (CYP1A2): 27 µM | IC50 (J774 macrophages; [2]): 1.25 µM

C[C@]1(O)CC[C@H](NS(=O)(=O)c2ccc(-c3ccc(C#N)cc3Cl)cc2)CC1 [HMC-C-09-A, 2′-Chloro-4′-cyano-N-((1r,4r)-4-hydroxy-4-methylcyclohexyl)-[1,1′-biphenyl]-4-sulfonamide]
IC50 (CYP2C19): > 50 µM | IC50 (CYP1A2): 23 µM | IC50 (J774 macrophages; [2]): 0.69 µM

C[C@]1(O)CC[C@@H](NS(=O)(=O)c2ccc(-c3cc(F)c(F)cc3F)cc2)CC1 [HMC-C-10-B, 2′,4′,5′-Trifluoro-N-((1s,4s)-4-hydroxy-4-methylcyclohexyl)-[1,1′-biphenyl]-4-sulfonamide]
IC50 (CYP2C19): 8.5 µM | IC50 (CYP1A2): > 16 µM | IC50 (J774 macrophages; [2]): 0.54 µM

C[C@]1(O)CC[C@H](NS(=O)(=O)c2ccc(-c3ccc(Cl)cc3C#N)c(Cl)c2)CC1 [HMC-C-11-A, 2,4′-Dichloro-2′-cyano-N-((1r,4r)-4-hydroxy-4-methylcyclohexyl)-[1,1′-biphenyl]-4-sulfonamide]
IC50 (CYP2C19): 5.1 µM | IC50 (CYP1A2): 11 µM | IC50 (J774 macrophages; [2]): 1.46 µM

C[C@]1(O)CC[C@H](NS(=O)(=O)c2ccc(-c3ncc(Cl)cc3C#N)cc2)CC1 [HMC-N-05-A, 4-(5-Chloro-3-cyanopyridin-2-yl)-N-((1r,4r)-4-hydroxy-4-methylcyclohexyl)benzenesulfonamide]
IC50 (CYP2C19): > 50 µM | IC50 (CYP1A2): 36 µM | IC50 (J774 macrophages; [2]): 1.82 µM
